pIC50: −log10 of the molar value.
System: MDA-MB-231 multicell spheroids, viability
Assay: Anticancer human tumor MDA-MB-231 cell line growth inhibition [PI3K];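 note: spheroids exposed to agents for seven days before reading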;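 for viability, T/C: percent of vehicle control luminescence with DMSO treated spheroids as 100%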
Conditions: for pIC50: curve of first compound; for viability, T/C: stronger effect = lower value
How it was run: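 Viability of mixed-cell spheroids was determined after exposure to pairwise combinations, one partner being inavolisib, alpelisib, duvelisib or copanlisib. Highest tested concentration matched clinical Cmax where known and 10 microM where not, descending in half-log steps.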

[1] = second compound 0.0316 µM, first compound 0.000316 µM
[2] = second compound 0.0316 µM, first compound 0.001 µM
[3] = second compound 0.0316 µM, first compound 0.00316 µM
[4] = second compound 0.0316 µM, first compound 0.01 µM
[5] = second compound 0.0316 µM, first compound 0.0316 µM
[6] = second compound 0.0316 µM, first compound 0.1 µM
[7] = second compound 0.1 µM, first compound 0.000316 µM
[8] = second compound 0.1 µM, first compound 0.001 µM
[9] = second compound 0.1 µM, first compound 0.00316 µM
[10] = second compound 0.1 µM, first compound 0.01 µM
[11] = second compound 0.1 µM, first compound 0.0316 µM
[12] = second compound 0.1 µM, first compound 0.1 µM
[13] = second compound 0.316 µM, first compound 0.000316 µM
[14] = second compound 0.316 µM, first compound 0.001 µM
[15] = second compound 0.316 µM, first compound 0.00316 µM
[16] = second compound 0.316 µM, first compound 0.01 µM
[17] = second compound 0.316 µM, first compound 0.0316 µM
[18] = second compound 0.316 µM, first compound 0.1 µM
[19] = second compound 1 µM, first compound 0.000316 µM
[20] = second compound 1 µM, first compound 0.001 µM
[21] = second compound 1 µM, first compound 0.00316 µM
[22] = second compound 1 µM, first compound 0.01 µM
[23] = second compound 1 µM, first compound 0.0316 µM
[24] = second compound 1 µM, first compound 0.1 µM
[25] = second compound 3.16 µM, first compound 0.000316 µM
[26] = second compound 3.16 µM, first compound 0.001 µM
[27] = second compound 3.16 µM, first compound 0.00316 µM
[28] = second compound 3.16 µM, first compound 0.01 µM
[29] = second compound 3.16 µM, first compound 0.0316 µM
[30] = second compound 3.16 µM, first compound 0.1 µM
[31] = second compound 10 µM, first compound 0.000316 µM
[32] = second compound 10 µM, first compound 0.001 µM
[33] = second compound 10 µM, first compound 0.00316 µM
[34] = second compound 10 µM, first compound 0.01 µM
[35] = second compound 10 µM, first compound 0.0316 µM
[36] = second compound 10 µM, first compound 0.1 µM

For `CC(=O)c1c(C)c2cnc(Nc3ccc(N4CCNCC4)cn3)nc2n(C2CCCC2)c1=O` + Cc1nc(NC(=O)N2CCCC2C(N)=O)sc1-c1ccnc(C(C)(C)C(F)(F)F)c1, the pIC50 (second compound 0.0316 µM) was 7.16, the pIC50 (second compound 0.1 µM) was 7.28 and the pIC50 (second compound 0.316 µM) was 7.56. The pIC50 (second compound 1 µM) was 7.66, the pIC50 (second compound 3.16 µM) was 7.72 and the pIC50 (second compound 10 µM) was 7.82. It also gave a viability, T/C [1] of 98.2%, a viability, T/C [2] of 87.3% and a viability, T/C [3] of 92.4%. The viability, T/C [4] was 82.7%, the viability, T/C [5] was 66.3% and the viability, T/C [6] was 42.5%. For the same compound, the viability, T/C [7] was 79.2%, the viability, T/C [8] was 85.5% and the viability, T/C [9] was 81.4%. For the same compound, the viability, T/C [10] was 73.4%, the viability, T/C [11] was 59.7% and the viability, T/C [12] was 37.8%. The viability, T/C [13] was 73.8%, the viability, T/C [14] was 72.8% and the viability, T/C [15] was 71.8%. The viability, T/C [16] was 60.9%, the viability, T/C [17] was 48.8% and the viability, T/C [18] was 34%. It also gave a viability, T/C [19] of 70.5%, a viability, T/C [20] of 64.9% and a viability, T/C [21] of 63%. The viability, T/C [22] was 59%, the viability, T/C [23] was 46% and the viability, T/C [24] was 29.6%. The viability, T/C [25] was 67.2%, the viability, T/C [26] was 66.6% and the viability, T/C [27] was 61.1%. For the same compound, the viability, T/C [28] was 56.3%, the viability, T/C [29] was 44.8% and the viability, T/C [30] was 33.2%. The viability, T/C [31] was 64%, the viability, T/C [32] was 60.9% and the viability, T/C [33] was 58.4%. For the same compound, the viability, T/C [34] was 52.4%, the viability, T/C [35] was 45.1% and the viability, T/C [36] was 31%.

`CC(C)n1nc(-c2ccc3oc(N)nc3c2)c2c(N)ncnc21` + Cc1nc(NC(=O)N2CCCC2C(N)=O)sc1-c1ccnc(C(C)(C)C(F)(F)F)c1 gave a pIC50 (second compound 0.0316 µM) of 7.37, a pIC50 (second compound 0.1 µM) of 7.60 and a pIC50 (second compound 0.316 µM) of 7.96. It also gave a pIC50 (second compound 1 µM) of 8.20, a pIC50 (second compound 3.16 µM) of 8.32 and a pIC50 (second compound 10 µM) of 8.50. For the same compound, the viability, T/C [1] was 94%, the viability, T/C [2] was 85.8% and the viability, T/C [3] was 80.9%. It also gave a viability, T/C [4] of 69.3%, a viability, T/C [5] of 55.3% and a viability, T/C [6] of 35.2%. For the same compound, the viability, T/C [7] was 85.7%, the viability, T/C [8] was 85.7% and the viability, T/C [9] was 71.2%. The viability, T/C [10] was 65.2%, the viability, T/C [11] was 45.9% and the viability, T/C [12] was 31.3%. The viability, T/C [13] was 73%, the viability, T/C [14] was 72% and the viability, T/C [15] was 60.2%. For the same compound, the viability, T/C [16] was 50.6%, the viability, T/C [17] was 39.6% and the viability, T/C [18] was 27.7%. For the same compound, the viability, T/C [19] was 68.3%, the viability, T/C [20] was 58% and the viability, T/C [21] was 55.5%. It also gave a viability, T/C [22] of 49.1%, a viability, T/C [23] of 35% and a viability, T/C [24] of 23.6%. The viability, T/C [25] was 66.4%, the viability, T/C [26] was 63.2% and the viability, T/C [27] was 54.1%. The viability, T/C [28] was 41.4%, the viability, T/C [29] was 34.8% and the viability, T/C [30] was 25.3%. It also gave a viability, T/C [31] of 62.3%, a viability, T/C [32] of 56% and a viability, T/C [33] of 50.4%. It also gave a viability, T/C [34] of 43.9%, a viability, T/C [35] of 33.8% and a viability, T/C [36] of 28.5%.
